Results taken from US9592213B2, “Prophylactic and/or therapeutic agent for dysmenorrhea” (National University Corporation Kumamoto University, priority 2009, dated 2017).
“Also recorded” adds a separate entry of the source.

Key:
EM-E6/E7/hTERT cells = assay: Example B2: western blotting of fibronectin and N-cadherin expression in endometrial epithelial cells; assay type: cell-based; settings: tranilast 320 μM, 80 μM, 20 μM with TGFβ2 5 ng/ml, TNFα 100 ng/ml or both, 48 hours
Procedure: Cell line EM-E6/E7/hTERT cells (EM) derived from endometrial epithelium were disseminated in a 6-well glass plate (EZView Culture Plate, LB Cover Glass Bottom, 6 wells, Iwaki) at 1×10^5 cells/well, followed by culturing for 2 days at 37° C. in an environment having a carbon dioxide concentration of 5% in DMEM/F12 medium and in the presence of 10% serum, and then culturing for 3 days after replacing the medium with serum-free DMEM/F12 medium.
Subsequently, tranilast (320 μM, 80 μM, 20 μM) was added to medium containing TGFβ2 at 5 ng/ml, TNFα at 100 ng/ml or both followed by replacing the medium. Protein was recovered 48 hours after having replaced the medium with the medium containing TGFβ2 or TNFα, and expression levels of fibronectin and N-cadherin were compared by western blotting.
Anti-fibronectin antibody (clone ID: F14, Epitomics) and anti-N-cadherin antibody (clone ID: 32/N-cadherin, BD Transduction Laboratories) were used for the antibodies.

[1] = system: Immortalized human retinal pigment epithelial cell line ARPE-19; assay: Example B1: transition of cell morphology from mesenchymal form to epithelial form after TGFβ2 and TNFα; assay type: cell-based; settings: tranilast 1 μg/ml added 48 hours after TGFβ2 5 ng/ml and TNFα 100 ng/ml, read after 96 hours
Procedure: Immortalized human retinal pigment epithelial cell line ARPE-19 (ATCC No.: CRL-2302) was disseminated into a 96-well glass plate (EZView Culture Plate, LB Cover Glass Bottom, 96 wells, Iwaki) at 1×10^4 cells/well followed by culturing at 37° C. in a 5% CO2 environment. After 5 days, 150 μl aliquots each of DMEM-F12 (serum-free, Sigma-Aldrich) medium supplemented by 5 ng/ml of TGFβ2 and 100 ng/ml of TNFα were prepared and used to replace the original medium in the wells and cultured at 37° C. in a 5% CO2 environment.
After 48 hours, the plate was removed from the incubator followed by the addition of tranilast (1 μg/ml) and culturing at 37° C. in a 5% CO2 environment. After 96 hours, the plate was washed with PBS and the cells were fixed for 30 minutes with 4% paraformaldehyde (Wako), and after washing with PBS, were stained for 1 hour with F-actin (Alexa Fluor 568 Phalloidin, Invitrogen) and nuclei (Hoechst 33342, Invitrogen) followed by washing with PBS and then immediately photographing using a fluorescence microscope (Keyence) at a magnification factor of 40×.

[2] = continuous infusion for 3.5 days at 7.5 mg/kg, normal adult; cited from earlier work
[3] = Clinical study of therapeutic effect of oral administration of tranilast in dysmenorrhea patients; assay type: in vivo, human
Procedure: Subject A was given 100 mg of tranilast three times a day by oral administration (300 mg per day, divided three times daily) daily for about six months starting on Sep. 1, 2008.
Menstrual pain was measured according to a numerical rating scale (NRS). In the NRS, the patient was asked to evaluate and record the degree of pain by themself by judging the degree of pain according to 11 levels ranging from level 0 indicating the absence of pain to level 10 indicating maximum pain. Menstrual blood loss was evaluated according to 5 levels ranging from level 0 indicating the absence of blood loss up to level 4 as blood loss increased.
The term “average” in the graphs indicates a value obtained by dividing the total sum of the pain level for each menstrual period by the number of days on which pain was felt.
The term “max” indicates a value of the day when the most intense pain was felt during each menstrual period.
Pain during menstruation was evaluated by the record made for each day by the patient according the 11 levels from level 0 indicating the absence of pain to level 10 indicating maximum pain in the same manner as Subjects A and B, using the NRS method.
The average values and maximum values of NRS scores indicating the intensity of pain during each menstrual period were derived, and the values were compared between the menstrual period at the start of administration and the last menstrual period during the administration period as shown in graphs of FIGS. 8A and 9A. In addition, the degrees of decrease in average values and maximum values for menstrual pain during the last menstrual period relative to the first menstrual period at the start of administration were represented as improvement rates, and are shown in FIGS. 8B and 9B.
Moreover, Subjects A, C, D, E, F and G, but excluding Subject B, underwent examinations at the facility conducting the clinical study at roughly one month intervals during the administration period, and were interviewed by a specialist in the department of gynecology. Interview findings before the start of administration and interview findings at the time of their final visit were compared and are shown in FIG. 10.

[4] = cited from earlier work
[5] = Patient history: adverse effects of earlier drugs in study subjects; assay type: in vivo, human; settings: Subject I, administration from Mar. 18, 2010
[6] = Subject A, organic dysmenorrhea, 100 mg three times a day orally, about six months
[7] = Subject B, August menstrual period, 100 mg/day
[8] = Subject B, September menstrual period, 200 mg/day
[9] = Subject B, after start of administration
[10] = Subject B, functional dysmenorrhea, 100-200 mg/day orally, about six months

Structure (SMILES): COc1ccc(C=CC(=O)Nc2ccccc2C(=O)O)cc1OC [Tranilast, N-(3,4-dimethoxycinnamoyl) anthranilic acid]
- expression level of N-cadherin (EM-E6/E7/hTERT cells): inhibited the expression
- expression level of fibronectin (EM-E6/E7/hTERT cells): inhibited the expression
- cell morphology [1]: exhibited an epithelial form
- foci formed after TGFβ2 and TNFα [1]: alleviated
- Cmax [2]: 2200 ng/mL
- lower abdominal pain and lower back pain during menstruation (NRS scores) [3, 6]: trend of decrease; also recorded: effects of alleviating lower abdominal pain and lower back pain were observed
- menstrual blood loss [3, 6]: trend of decrease
- adverse side effects from taking tranilast ([3]; Subject B): no adverse side effects
- menstrual blood loss [3, 7]: remained high
- menstrual pain [3, 7]: less menstrual pain
- pain and blood loss sensed by patient ([3]; Subject B, December, 100 mg/day): reduced pain and blood loss
- menstrual blood loss [3, 8]: Reduction
- menstrual pain [3, 8]: Reduction
- duration of menstruation [3, 9]: decreased significantly
- symptoms of menorrhagia [3, 9]: clearly improved
- lower abdominal pain and lower back pain during menstruation (NRS scores) [3, 10]: clearly decrease; also recorded: decrease significantly
- menstrual blood loss [3, 10]: clearly decrease; also recorded: decreased significantly
- pain at menstrual period ([3]; Subject H, organic dysmenorrhea, 100 mg three times per day orally, roughly one month): Pain diminished
- need for analgesic ([3]; Subject H, roughly one month after beginning administration): no longer need to take an analgesic
- menstrual pain and chronic pelvic pain when not menstruating (interview findings) ([3]; Subject I, examination Jun. 4, 2010): diminished and no longer interfered with their job
- pain at first menstrual period after beginning administration ([3]; Subject I, organic dysmenorrhea, 100 mg three times per day orally): the pain diminished
- analgesic use at first menstrual period after beginning administration ([3]; Subject I, before: multiple days with four analgesic tablets per day): one tablet of analgesic per day for 3 days
- pain during menstruation, last menstrual period of administration vs menstrual period at start (NRS average and maximum) ([3]; Subjects A, B, C, D, E, F and G): prominent decreases
- interview findings by gynecological specialist on menstrual pain, final visit vs before start ([3]; Subjects A, C, D, E and F): menstrual pain diminished
- solubility in 1,4-dioxane ([4]; 1,4-dioxane): soluble
- solubility in N,N-dimethylformamide ([4]; N,N-dimethylformamide): freely soluble
- solubility in diethyl ether ([4]; diethyl ether): very slightly soluble
- solubility in ethanol ([4]; ethanol): slightly soluble
- solubility in water ([4]; water): practically insoluble

Structure (SMILES): C[C@]12CCC3=C4CCC(=O)C=C4CC[C@H]3[C@@H]1CC[C@@]2(O)CC#N [dienogest]
- adverse effect in patient history leading to discontinuation [5]: persistent abnormal genital bleeding
